For experiment [1], the target named is T1, NLRP3 (Homo sapiens, UniProt Q96P20). Put plainly: THP-1 cells pyroptosis assay (LPS + nigericin, resazurin readout; THP IC50). The experiment is classed as cell-based. On the set-up: Seed THP-1 cells (25,000 cells/well) containing 1.0 μg/ml LPS in 40 μl of RPMI medium; host or cells: THP-1 cells. The method, boiled down: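 Human THP-1 cells, 25,000/well in serum-free RPMI with 1 μg/ml LPS, treated 3 hrs at 37° C with compound (8-point half-log, 10 μM top, 0.1% DMSO), then 5 μM nigericin 1 hr. Viability by 100 μM resazurin fluorescence after 1-2 hrs; IC50 by 4-parameter fit.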

Experiment [2] addresses T1, NLRP3. In words: Human whole blood IL1β release assay (LPS + nigericin, AlphaLisa IL-1β; HWB IC50). It is filed as cell-based. More on the design: Human whole blood in Li-heparin tubes was obtained from healthy donors from a volunteer donor panel; from tissue; host or cells: human whole blood from healthy donors. The note with it: IL-1β release. The method, boiled down: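 Donor Li-heparin whole blood primed with 1 μg/ml LPS, given compound (8-point half-log series, 10 μM top; DMSO 0.1% final) for 3 h at 37 °C, then nigericin 10 μM final for 1 h. Supernatant IL-1β measured by AlphaLisa; IC50 from 4-parameter variable-slope fit.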

Data on 24 compounds can be found in patent US20200361895A1, “NOVEL SULFONAMIDE CARBOXAMIDE COMPOUNDS” (Inflazome Limited, priority 2017, published 2020).

Structures can show the parent of a compound that is named as a salt.

T1 sequence (Q96P20 whole entry): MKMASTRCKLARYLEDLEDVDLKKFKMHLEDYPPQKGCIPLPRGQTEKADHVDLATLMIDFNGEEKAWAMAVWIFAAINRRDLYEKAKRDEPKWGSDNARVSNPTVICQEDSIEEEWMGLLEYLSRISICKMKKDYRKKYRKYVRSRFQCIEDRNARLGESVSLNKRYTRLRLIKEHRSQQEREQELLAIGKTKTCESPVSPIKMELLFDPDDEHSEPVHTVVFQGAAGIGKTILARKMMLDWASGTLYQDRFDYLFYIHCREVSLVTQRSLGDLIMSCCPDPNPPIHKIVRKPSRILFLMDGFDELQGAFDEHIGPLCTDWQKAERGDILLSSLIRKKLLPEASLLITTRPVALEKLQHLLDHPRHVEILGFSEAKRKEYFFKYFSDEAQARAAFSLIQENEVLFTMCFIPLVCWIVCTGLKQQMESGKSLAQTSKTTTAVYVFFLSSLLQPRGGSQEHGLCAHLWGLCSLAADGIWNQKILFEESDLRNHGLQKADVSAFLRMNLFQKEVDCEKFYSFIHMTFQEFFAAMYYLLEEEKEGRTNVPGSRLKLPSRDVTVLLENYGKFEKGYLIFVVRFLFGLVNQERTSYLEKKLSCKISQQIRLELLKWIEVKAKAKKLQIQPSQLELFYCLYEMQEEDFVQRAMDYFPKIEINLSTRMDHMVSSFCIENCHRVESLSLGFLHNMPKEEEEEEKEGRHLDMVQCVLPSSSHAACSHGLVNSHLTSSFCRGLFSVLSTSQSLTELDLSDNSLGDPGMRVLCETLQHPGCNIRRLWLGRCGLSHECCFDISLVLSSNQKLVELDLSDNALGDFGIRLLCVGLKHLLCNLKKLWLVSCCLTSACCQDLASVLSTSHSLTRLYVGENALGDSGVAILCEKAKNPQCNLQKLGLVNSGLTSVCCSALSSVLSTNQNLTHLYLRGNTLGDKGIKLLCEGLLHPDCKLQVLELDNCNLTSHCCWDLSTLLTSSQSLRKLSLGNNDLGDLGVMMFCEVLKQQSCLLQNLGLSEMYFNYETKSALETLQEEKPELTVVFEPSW

For the compound `COc1cc(-c2ccc3c(c2NC(=O)NS(=O)(=O)c2ccn(C(C)(C)CN4CC(C)C4)n2)CCC3)ccn1` [Example 236, N-((5-(2-Methoxypyridin-4-yl)-2,3-dihydro-1H-inden-4-yl)carbamoyl)-1-(2-methyl-1-(3-methylazetidin-1-yl)propan-2-yl)-1H-pyrazole-3-sulfonamide], the IC50 on NLRP3 [1] and on NLRP3 [2] was at most 500 nM throughout.
With `CC(C)n1ccc(S(=O)(=O)NC(=O)Nc2c(-c3ccnc(OC(F)F)c3)ccc3c2CCC3)n1` [Example 237, N-((5-(2-(Difluoromethoxy)pyridin-4-yl)-2,3-dihydro-1H-inden-4-yl)carbamoyl)-1-isopropyl-1H-pyrazole-3-sulfonamide, sodium salt], the values for the IC50 on NLRP3 [1] and on NLRP3 [2] were at most 500 nM and at most 1000 nM, respectively.
With `COc1cc(-c2ccc3c(c2NC(=O)NS(=O)(=O)c2nn(C(C)C)cc2F)CCC3)ccn1` [Example 239, 4-Fluoro-1-isopropyl-N-((5-(2-methoxypyridin-4-yl)-2,3-dihydro-1H-inden-4-yl)carbamoyl)-1H-pyrazole-3-sulfonamide], the IC50 at NLRP3 [1] and on NLRP3 [2] was at most 500 nM throughout.
`COc1cc(-c2ccc3c(c2NC(=O)NS(=O)(=O)c2ccn(C(C)(C)CN4CC(F)C4)n2)CCC3)ccn1` [Example 242, 1-(1-(3-Fluoroazetidin-1-yl)-2-methylpropan-2-yl)-N-((5-(2-methoxypyridin-4-yl)-2,3-dihydro-1H-inden-4-yl)carbamoyl)-1H-pyrazole-3-sulfonamide, sodium salt]: the IC50 on NLRP3 [1] and on NLRP3 [2] was at most 500 nM each time.
Take `COc1cc(-c2ccc3c(c2NC(=O)NS(=O)(=O)c2ccn(C(C)(C)CN4CCCC4)n2)CCC3)ccn1` [Example 243, N-((5-(2-Methoxypyridin-4-yl)-2,3-dihydro-1H-inden-4-yl)carbamoyl)-1-(2-methyl-1-(pyrrolidin-1-yl)propan-2-yl)-1H-pyrazole-3-sulfonamide, sodium salt]: the IC50 at NLRP3 [1] and on NLRP3 [2] was at most 500 nM in each case.
Turning to `COc1cc(-c2ccc3c(c2NC(=O)NS(=O)(=O)c2ccn(C4CCC4)n2)CCC3)ccn1` [Example 244, 1-Cyclobutyl-N-((5-(2-methoxypyridin-4-yl)-2,3-dihydro-1H-inden-4-yl)carbamoyl)-1H-pyrazole-3-sulfonamide, sodium salt], the IC50 at NLRP3 [1] and at NLRP3 [2] was at most 500 nM throughout.
In the case of `Cc1cc(-c2ccc3c(c2NC(=O)NS(=O)(=O)c2ccn(C(C)C)n2)CCC3)ccn1` [Example 245, 1-Isopropyl-N-((5-(2-methylpyridin-4-yl)-2,3-dihydro-1H-inden-4-yl)carbamoyl)-1H-pyrazole-3-sulfonamide, sodium salt], the IC50 at NLRP3 [1] and at NLRP3 [2] was at most 500 nM in each case.
With `COc1cc(-c2ccc3c(c2NC(=O)NS(=O)(=O)c2cnn(C(C)C)n2)CCC3)ccn1` [Example 246, 2-Isopropyl-N-((5-(2-methoxypyridin-4-yl)-2,3-dihydro-1H-inden-4-yl)carbamoyl)-2H-1,2,3-triazole-4-sulfonamide, sodium salt], the IC50 is at most 500 nM on NLRP3 [1] and at most 1000 nM on NLRP3 [2].
Take `COc1cc(-c2ccc3c(c2NC(=O)NS(=O)(=O)c2ccn(C4(CN(C)C)CCC4)n2)CCC3)ccn1` [Example 247, 1-(1-((Dimethylamino)methyl)cyclobutyl)-N-((5-(2-methoxypyridin-4-yl)-2,3-dihydro-1H-inden-4-yl)carbamoyl)-1H-pyrazole-3-sulfonamide, sodium salt]: the IC50 at NLRP3 [1] and on NLRP3 [2] was at most 500 nM throughout.
On to `COc1cc(-c2ccc3c(c2NC(=O)NS(=O)(=O)c2ccn(C4CC4)n2)CCO3)ccn1` [Example 248, 1-Cyclopropyl-N-((5-(2-methoxypyridin-4-3-sulfonamide, sodium salt], for which the IC50 at NLRP3 [1] and on NLRP3 [2] was at most 500 nM in each case.
On to `COc1cc(-c2ccc3c(c2NC(=O)NS(=O)(=O)c2ccn(CCF)n2)CCC3)ccn1` [Example 249, 1-(2-Fluoroethyl)-N-((5-(2-methoxypyridin-4-yl)-2,3-dihydro-1H-inden-4-yl)carbamoyl)-1H-pyrazole-3-sulfonamide, sodium salt], for which the IC50 on NLRP3 [1] and on NLRP3 [2] was at most 500 nM each time.
`COc1cc(-c2ccc3c(c2NC(=O)NS(=O)(=O)c2cnn(C(C)C)c2)CCC3)ccn1` [Example 250, 1-Isopropyl-N-((5-(2-methoxypyridin-4-yl)-2,3-dihydro-1H-inden-4-yl)carbamoyl)-1H-pyrazole-4-sulfonamide, sodium salt]: the IC50 at NLRP3 [1] and on NLRP3 [2] was at most 500 nM each time.
Take `COc1cc(-c2ccc3c(c2NC(=O)NS(=O)(=O)c2ccn(C(C)(C)C)n2)CCC3)ccn1` [Example 252, 1-(tert-Butyl)-N-((5-(2-methoxypyridin-4-yl)-2,3-dihydro-1H-inden-4-yl)carbamoyl)-1H-pyrazole-3-sulfonamide, sodium salt]: the IC50 at NLRP3 [1] and at NLRP3 [2] was at most 500 nM throughout.
With `CNc1cc(-c2ccc3c(c2NC(=O)NS(=O)(=O)c2ccn(C4CC4)n2)CCC3)ccn1` [Example 253, 1-Cyclopropyl-N-((5-(2-(methylamino)pyridin-4-yl)-2,3-dihydro-1H-inden-4-yl)carbamoyl)-1H-pyrazole-3-sulfonamide], the IC50 on NLRP3 [1] is at most 1000 nM; at NLRP3 [2] it was at most 5000 nM.
Taken in the same sequence, the figures for `COc1cc(-c2ccc3c(c2NC(=O)NS(=O)(=O)c2ccn(C4CC4)n2)CCC3)c(F)cn1` [Example 255, 1-Cyclopropyl-N-((5-(5-fluoro-2-methoxypyridin-4-yl)-2,3-dihydro-1H-inden-4-yl)carbamoyl)-1H-pyrazole-3-sulfonamide, sodium salt] were at most 500 nM and at most 500 nM.
Taken in the same sequence, the figures for `COc1cc(-c2ccc3c(c2NC(=O)NS(=O)(=O)c2ccn(C4CCC4)n2)CCO3)ccn1` [Example 257, 1-Cyclobutyl-N-((5-(2-methoxypyridin-4-yl)-2,3-dihydrobenzofuran-4-yl)carbamoyl)-1H-pyrazole-3-sulfonamide, sodium salt] were at most 500 nM and at most 500 nM.
For the compound `COc1cc(-c2ccc3c(c2NC(=O)NS(=O)(=O)c2ccn(C(C)(C)CN4CCC4)n2)CCO3)ccn1` [Example 258, 1-(1-(Azetidin-1-yl)-2-rnethylpropan-2-yl)-N-((5-(2-methoxypyridin-4-yl)-2,3-dihydrobenzofuran-4-yl)carbamoyl)-1H-pyrazole-3-sulfonamide, sodium salt], the IC50 on NLRP3 [1] and at NLRP3 [2] was at most 500 nM each time.
Take `COc1cc(-c2ccc3c(c2NC(=O)NS(=O)(=O)c2ccn(C(C)(C)C)n2)CCO3)ccn1` [Example 259, 1-(tert-Butyl)-N-((5-(2-methoxypyridin-4-yl)-2,3-dihydrobenzofuran-4-yl)carbamoyl)-1H-pyrazole-3-sulfonamide, sodium salt]: the IC50 on NLRP3 [1] and at NLRP3 [2] was at most 500 nM throughout.
For `CC(C)n1ncc(S(=O)(=O)NC(=O)Nc2c(-c3ccnc(C#N)c3)ccc3c2CCC3)n1` [Example 260, N-((5-(2-Cyanopyridin-4-yl)-2,3-dihydro-1H-inden-4-yl)carbamoyl)-2-isopropyl-2H-1,2,3-triazole-4-sulfonamide, sodium salt], the IC50 at NLRP3 [1] was at most 500 nM; at NLRP3 [2], at most 5000 nM.
The like results for `O=C(Nc1c(-c2ccnc(OC3CC3)c2)ccc2c1CCC2)NS(=O)(=O)c1ccn(C2CC2)n1` [Example 261, N-((5-(2-Cyclopropoxypyridin-4-yl)-2,3-dihydro-1H-inden-4-yl)carbamoyl)-1-cyclopropyl-1H-pyrazole-3-sulfonamide, sodium salt] were, in that order, at most 500 nM and at most 5000 nM.
Taken in the same sequence, the figures for `O=C(Nc1c(-c2ccnc(OC(F)F)c2)ccc2c1CCC2)NS(=O)(=O)c1ccn(C2CC2)n1` [Example 262, 1-Cyclopropyl-N-((5-(2-(difluoromethoxy)pyridin-4-yl)-2,3-dihydro-1H-inden-4-yl)carbamoyl)-1H-pyrazole-3-sulfonamide, sodium salt] were at most 500 nM and at most 1000 nM.
Take `COc1cc(-c2ccc3c(c2NC(=O)NS(=O)(=O)c2ccn(CC4CC4)n2)CCC3)ccn1` [Example 263, 1-(Cyclopropylmethyl)-N-((5-(2-methoxypyridin-4-yl)-2,3-dihydro-1H-inden-4-yl)carbamoyl)-1H-pyrazole-3-sulfonamide, sodium salt]: the IC50 at NLRP3 [1] and at NLRP3 [2] was at most 500 nM throughout.
As to `CC(C)(C)n1ccc(S(=O)(=O)NC(=O)Nc2c(-c3ccnc(C#N)c3)ccc3c2CCC3)n1` [Example 264, 1-(tert-Butyl)-N-((5-(2-cyanopyridin-4-yl)-2,3-dihydro-1H-inden-4-yl)carbamoyl)-1H-pyrazole-3-sulfonamide, sodium salt], the IC50 on NLRP3 [1] and on NLRP3 [2] was at most 500 nM in each case.
Consider `COc1cc(-c2ccc3c(c2NC(=O)NS(=O)(=O)c2ccn(C4CC4)n2)CCO3)c(F)cn1` [Example 265, 1-Cyclopropyl-N-((5-(5-fluoro-2-methoxypyridin-4-yl)-2,3-dihydrobenzofuran-4-yl)carbamoyl)-1H-pyrazole-3-sulfonamide, sodium salt], for which the IC50 at NLRP3 [1] and at NLRP3 [2] was at most 500 nM throughout.
